PMC9144145, “Preclinical Safety and Pharmacokinetics of Heat Stable Oxytocin in Sublingual Fast-Dissolving Tablet Formulation” (Pharmaceutics, 2022)

Experiment: GLP toxicokinetic study in anesthetized rabbits, plasma oxytocin by LC-MS/MS
Type: in vivo
Conditions: rabbit, IM, 10 IU
Protocol: The toxicokinetic study in rabbits (Table 2) was conducted at a contract animal facility (Noble Life Sciences, Sykesville, MD, USA) under approval from Noble Life Sciences IACUC (approval code: NLS-589, date: 13 May 2020) and in compliance with the U.S. Food and Drug Administration Good Laboratory Practice Regulations for Nonclinical Laboratory Studies (21 CFR Part 58).
For SL placement of fast dissolving tablets, the rabbit was anesthetized and positioned on a flat table, with the lower jaw strongly supported in a horizontal level on the table. Using rounded tip stainless tweezers, the rabbit’s tongue was carefully raised, and the sublingual tablet was placed beneath the tongue (see Figure 1). Anesthesia was maintained for 3 h after drug administration to keep the tablet in sublingual position and prevent entering the gastrointestinal tract.
Animals were not fasted prior to blood collection. Blood was collected at the time points of 0 min (pre-dose) and 5, 10, 15, 20, 30, 60, 120, and 180 min post-dose and at euthanasia only the first four animals for SL group. All animals were anesthetized pre-dose, prior to dosing. All animals were anesthetized with ketamine (35–50 mg/kg) and xylazine (3–5 mg/kg) via a subcutaneous or intramuscular (IM) route followed by maintenance anesthesia with additional half doses if needed or via inhaled isoflurane. At the selected time points, whole blood was collected aseptically from the auricular artery and dispensed into the appropriate collection tubes in any order: (1) K3 EDTA for hematology determinations; (2) 0.129 M, 3.8% sodium citrate for coagulation analyses (plasma); (3) serum separator tube for serum chemistry and C-reactive protein; and (4) aprotinin-spiked (K2EDTA) tubes for plasma oxytocin determinations. Tubes containing hematology specimens were placed at room temperature on a rocker for at least 30 min prior to shipment. Tubes containing whole blood for serum isolation were maintained for at least 30 min and no more than 4 h at room temperature before being processed to serum. Tubes containing aprotinin-spiked (K2EDTA) specimens for oxytocin determinations were maintained on wet ice or cold packs before use and after collection. They were also maintained on a rocker for at least 30 min prior to processing.
Blood samples for oxytocin determination were collected into the Aprotinin spiked (K2EDTA) vacutainer tubes and processed for collection of plasma. The samples were processed by centrifuging for approximately 15 min at approximately 3000 rpm and approximately 4 °C; they were aliquoted into cryovials without anticoagulant and were immediately placed on dry ice. At termination, blood was collected from the SL group for serum chemistry, C-reactive protein, hematology, and coagulation. Blood collected for coagulation analyses was collected into tubes containing 3.8% sodium citrate and was processed for plasma per the Noble protocol. All serum and plasma samples were processed aseptically.
Each plasma sample was aliquoted into two vials of an approximately equal volume. All the collected plasma was analyzed for oxytocin levels by the LC-MS/MS method.
The bioanalytical method for quantification of oxytocin in rabbit plasma (K2EDTA) was validated following the FDA guidelines for a bioanalytical method validation at NorthEast BioAnalytical Laboratory, LLC (NEBA) (Hamden, CT, USA), via reverse phase liquid chromatography separation (Column: Zorbax SB C18 (Agilent, Santa Clara, CA, USA) 3.5 μm 150 × 4.6 mm, Security/Guard Cartridge Gemini C18 4 × 2.0 mm) and detection by tandem mass spectrometry (LC/MS/MS) using Sciex API-5000 Mass Spectrometer. Analysis of Oxytocin was performed using stable label internal standard, Oxytocin-d5. Oxytocin was received as an acetate salt and Oxytocin-d5 was received as Trifluoroacetate salt.
For quantitation, the LC/MS/MS data were acquired using Analyst® v1.6 software (Sciex, Framingham, MA, USA). […]

CC[C@H](C)[C@@H]1NC(=O)[C@H](Cc2ccc(O)cc2)NC(=O)[C@@H](N)CSSC[C@@H](C(=O)N2CCC[C@H]2C(=O)N[C@@H](CC(C)C)C(=O)NCC(N)=O)NC(=O)[C@H](CC(N)=O)NC(=O)[C@H](CCC(N)=O)NC1=O [Intramuscular (Control), Oxytocin]
AUC(0-t) (plasma, linear trapezoidal, mean, n = 8): 4.82 ± 0.728 ng·h/mL
half-life (plasma, mean, n = 8): 1.02 ± 0.336 h
time to rapid increase in plasma oxytocin concentration: ≤ 5 min
Tlast (mean, n = 8): 2.88 ± 0.354 h
Tmax (plasma, LC-MS/MS, mean ± SD, n = 8, SD): 1.13 ± 0.916 h
Cmax (plasma, LC-MS/MS, mean, n = 8): 2.66 ± 0.567 ng/mL
